Data on 31 molecules can be found in patent US20080280837A1, “Biologically Active Compounds with Anti-Angiogenic Properties” (priority 2004, published 2008).

The test concerns the target T1, Human SST5 somatostatin receptor (SSTR5) (Homo sapiens, UniProt P35346).
T1 construct: expressed in transfected cells; host or cells: HEK-293 EBNA
Briefly: Filter plate assay for SST5 receptor, displacement of [125I]SST-14. Type of test: binding. On the procedure: Receptor membrane preparations containing the desired cloned receptor (for example cloned human somatostatin receptor subtype 5, SSTR5) and radio-labeled ligand (for example 3-[^125I]iodotyrosyl^11 Somatostatin-14)) were diluted at the concentration required for testing and according to the specific parameters associated with the selected receptor-ligand combination, including receptor Bmax, ligand Kd and any other parameters necessary to optimize the experimental conditions. When tested for competition activity to the reference ligand, “compound 1” was mixed with membrane suspension and the radiolabeled reference ligand (with or without an excess of cold ligand to the receptor for determination of non-specific binding) and incubated at the temperature required by internal standard operating procedures. Following incubation, the binding reaction was stopped by the addition of ice-cold washing buffer and filtered on appropriate filters, which are then counted. Data analysis and curve-fitting was performed with XLfit (IDBS).
10 mM solutions of test compounds in 100% DMSO were prepared. ˜160 μl was used for each dilution (20 μl/well in triplicate).
A 1.25 mM assay stock was prepared by making a 1:8 dilution of the 10 mM solution. (To 30 μL of the 10 mM solution was added 210 μL milli-Q H2O. A 1:5 dilution series in milli-Q H2O was then prepared.
Assays were performed in triplicate at each concentration within the 1:5 dilution series: 250 μM, 50 μM, 10 μM, […], 0.4 μM, 0.08 μM, 0.016 μM, 0.0032 μM, etc. (for SST4 assay) and 125 μM, 10 μM, 2 μM, 1 μM, 0.5 μM, etc (for SST5 assay).
Human SST5 somatostatin receptor was transfected into HEK-293 EBNA cells. Membranes were suspended in assay buffer (50 mM Tris-HCl, 1 mM EGTA, 5 mM MgCl2, 10% sucrose, pH 7.5).
After thawing the frozen receptor preparation rapidly, receptors were diluted with binding buffer, homogenized, and kept on ice. • 1. Use Multiscreen glass fiber filter plates (Millipore, Cat No MAFCNOB10) precoated with o.5% PEI for ˜2 hr at 4° C. Before use add 200 μl/well assay buffer and filter using Multiscreen Separation System. • 2. Incubate 5.5 μg of membranes (40 μl of a 1:40 dilution), buffer and [^125I]SST-14 (4 nM, ˜80 000 cpm, 2000 Ci/mmol) in a total volume of 200 μl for 60 min at 25° C. […] Prepare serial dilutions (1:5) of compounds, as described above and instead of adding SST-14 in well, add 20 μl of compounds (Table 1). • 3. Filter using Multiscreen Separation System with 5×0.2 ml ice-cold Assay buffer. • 4. Remove the plastic underdrain and dry plate in oven for 1 hr at 40° C. • 5. Seal tape to the bottom of the plate. • 6. Add 50 μl/well scintillant (Supermix, Wallac, Cat No 1200-439). • 7. Seal and count in the BJET, program 2.
In primary screening experiments compounds were tested in duplicate for a particular concentration.
A general note: Loss of bound radioactivity is the signal in a displacement assay; it reports binding, not function.

T1 sequence (P35346 whole entry): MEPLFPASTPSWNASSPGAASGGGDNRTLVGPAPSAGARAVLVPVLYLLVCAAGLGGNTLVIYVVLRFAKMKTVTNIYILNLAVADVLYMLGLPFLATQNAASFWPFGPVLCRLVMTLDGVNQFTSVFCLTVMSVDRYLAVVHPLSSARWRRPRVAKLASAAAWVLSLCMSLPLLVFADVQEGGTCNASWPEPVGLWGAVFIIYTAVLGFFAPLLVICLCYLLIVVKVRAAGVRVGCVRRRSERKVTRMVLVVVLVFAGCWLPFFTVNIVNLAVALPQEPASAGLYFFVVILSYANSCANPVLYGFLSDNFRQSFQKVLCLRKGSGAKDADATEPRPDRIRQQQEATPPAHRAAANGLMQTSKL

In the case of `COC[C@H]1OC(OCc2ccc3ccccc3c2)[C@H](NC(=O)CCCNC(=N)N)[C@H](OCc2ccc(Cl)cc2)[C@@H]1O` (some centres unmarked) [Compound 17], the “SSTR5 Inhib 0.5 uM % (inhibition of binding of SST-14 to SSTR5)” value (“SSTR5 Inhib 0.5 uM %” for short) was 84% and the “SSTR5 Inhib 10 uM % (inhibition of binding of SST-14 to SSTR5)” value (shortened to “SSTR5 Inhib 10 uM %”) came out at 98%.

With `COC[C@H]1OC(OCc2ccccc2)[C@H](NC(=O)CCN)[C@H](OCc2ccc3ccccc3c2)[C@@H]1O` (some centres unmarked) [Compound 18], the “SSTR5 Inhib 0.5 uM %” value is listed as 90% and the “SSTR5 Inhib 10 uM %” value is recorded as 98%.

As for `COC[C@H]1OC(OCc2ccc(Cl)cc2)[C@H](NC(=O)CCCN)[C@@H](OCc2ccc3ccccc3c2)[C@@H]1O` (some centres unmarked) [Compound 19], the “SSTR5 Inhib 0.5 uM %” value was determined as 88% and the “SSTR5 Inhib 10 uM %” value was found to be 98%.

For the molecule `COC[C@H]1OC(OCc2ccc3ccccc3c2)[C@H](NC(=O)CCCN)[C@H](OCc2ccc(Cl)cc2)[C@@H]1O` (some centres unmarked) [Compound 20], the “SSTR5 Inhib 0.5 uM %” value stood at 76% and the “SSTR5 Inhib 10 uM %” value is on record as 97%.

As to `COC[C@H]1OC(OCc2ccc3ccccc3c2)[C@H](NC(=O)CCN)[C@H](OCc2ccccc2)[C@@H]1O` (some centres unmarked) [Compound 21], the “SSTR5 Inhib 0.5 uM %” value was 81% and the “SSTR5 Inhib 10 uM %” value amounted to 97%.

As to `COC[C@H]1OC(OCc2ccccc2)[C@H](NC(=O)CCN)[C@H](OCc2ccc(Cl)cc2)[C@@H]1O` (some centres unmarked) [Compound 22], the “SSTR5 Inhib 0.5 uM %” value worked out at 80% and the “SSTR5 Inhib 10 uM %” value was 96%.

Take `COC[C@H]1OC(OCc2ccc3ccccc3c2)[C@H](NC(=O)CCCNC(=N)N)[C@@H](OCc2ccc(Cl)cc2)[C@@H]1O` (some centres unmarked) [Compound 23]: the “SSTR5 Inhib 0.5 uM %” value is on record as 80% and the “SSTR5 Inhib 10 uM %” value is given as 96%.

In the case of `COC[C@H]1OC(OCc2ccc(Cl)cc2)[C@H](NC(=O)CCCN)[C@H](OCc2ccc3ccccc3c2)[C@@H]1O` (some centres unmarked) [Compound 24], the “SSTR5 Inhib 0.5 uM %” value is recorded as 67% and the “SSTR5 Inhib 10 uM %” value is 96%.

Take `COC[C@H]1OC(OCc2ccc3ccccc3c2)[C@H](NC(=O)CCCN)[C@@H](OCc2ccc(-c3ccccc3)cc2)[C@@H]1O` (some centres unmarked) [Compound 25]: the “SSTR5 Inhib 0.5 uM %” value came out at 77% and the “SSTR5 Inhib 10 uM %” value is recorded as 96%.

Consider `COC[C@H]1OC(OCc2ccc3ccccc3c2)[C@H](NC(=O)CCN)[C@H](OCc2ccc(-c3ccccc3)cc2)[C@@H]1O` (some centres unmarked) [Compound 26], for which the “SSTR5 Inhib 0.5 uM %” value worked out at 77% and the “SSTR5 Inhib 10 uM %” value worked out at 96%.

As for `COC[C@H]1OC(OCc2ccc(Cl)cc2)[C@H](NC(=O)CCCN)[C@H](OCc2ccc(-c3ccccc3)cc2)[C@@H]1O` (some centres unmarked) [Compound 27], the “SSTR5 Inhib 0.5 uM %” value was found to be 74% and the “SSTR5 Inhib 10 uM %” value was determined as 96%.

With `COC[C@H]1OC(OCCc2ccccc2)[C@H](NC(=O)CCCN)[C@H](OCc2ccc3ccccc3c2)[C@@H]1O` (some centres unmarked) [Compound 28], the “SSTR5 Inhib 0.5 uM %” value came out at 70% and the “SSTR5 Inhib 10 uM %” value amounted to 96%.

Take `COC[C@H]1OC(OCc2ccc3ccccc3c2)[C@H](NC(=O)CCCN)[C@@H](OCc2ccc(-c3ccccc3)cc2)[C@@H]1O` (some centres unmarked) [Compound 29]: the “SSTR5 Inhib 0.5 uM %” value was determined as 77% and the “SSTR5 Inhib 10 uM %” value amounted to 96%.

Turning to `COC[C@H]1OC(OCc2ccc(Cl)cc2)[C@H](NC(=O)CCCN)[C@@H](OCc2ccc(-c3ccccc3)cc2)[C@@H]1O` (some centres unmarked) [Compound 30], the “SSTR5 Inhib 0.5 uM %” value came to 80% and the “SSTR5 Inhib 10 uM %” value is listed as 96%.

On to `COC[C@H]1OC(OCc2ccc(-c3ccccc3)cc2)[C@H](NC(=O)CCCN)[C@@H](OCc2ccc(-c3ccccc3)cc2)[C@@H]1O` (some centres unmarked) [Compound 31], for which the “SSTR5 Inhib 0.5 uM %” value is given as 85% and the “SSTR5 Inhib 10 uM %” value is 96%.

As for `COC[C@H]1OC(OCc2ccccc2)[C@H](NC(=O)CCCN)[C@@H](OCc2ccc3ccccc3c2)[C@@H]1O` (some centres unmarked) [Compound 32], the “SSTR5 Inhib 0.5 uM %” value stood at 80% and the “SSTR5 Inhib 10 uM %” value is 95%.

For the molecule `COC[C@H]1OC(OCc2ccc(Cl)cc2)[C@H](NC(=O)CCCN)[C@@H](OCc2ccc(Cl)cc2)[C@@H]1O` (some centres unmarked) [Compound 33], the “SSTR5 Inhib 0.5 uM %” value came out at 68% and the “SSTR5 Inhib 10 uM %” value was 95%.

`COC[C@H]1OC(OCCc2ccccc2)[C@H](NC(=O)CCN)[C@H](OCc2ccc(Cl)cc2)[C@@H]1O` (some centres unmarked) [Compound 34]: the “SSTR5 Inhib 0.5 uM %” value was 61% and the “SSTR5 Inhib 10 uM %” value was 95%.

On to `COC[C@H]1OC(OCc2ccc3ccccc3c2)[C@H](NC(=O)CCNC(=N)N)[C@H](OCc2ccc(Cl)cc2)[C@@H]1O` (some centres unmarked) [Compound 35], for which the “SSTR5 Inhib 0.5 uM %” value amounted to 60% and the “SSTR5 Inhib 10 uM %” value worked out at 95%.

As to `COC[C@H]1OC(OCc2ccc3ccccc3c2)[C@H](NC(=O)CCNC(=N)N)[C@H](OCc2ccc(-c3ccccc3)cc2)[C@@H]1O` (some centres unmarked) [Compound 36], the “SSTR5 Inhib 0.5 uM %” value is listed as 67% and the “SSTR5 Inhib 10 uM %” value was found to be 95%.

For `COC[C@H]1OC(OCc2ccccc2)[C@H](NC(=O)CCN)[C@H](OCc2ccc3ccccc3c2)[C@@H]1O` (some centres unmarked) [Compound 37], the “SSTR5 Inhib 0.5 uM %” value came to 81% and the “SSTR5 Inhib 10 uM %” value worked out at 95%.

As for `COC[C@H]1OC(OCc2ccc(-c3ccccc3)cc2)[C@H](NC(=O)CCCN)[C@@H](OCc2ccc3ccccc3c2)[C@@H]1O` (some centres unmarked) [Compound 38], the “SSTR5 Inhib 0.5 uM %” value is recorded as 79% and the “SSTR5 Inhib 10 uM %” value is recorded as 95%.

Consider `COC[C@H]1OC(OCc2ccc(Cl)cc2)[C@H](NC(=O)CCN)[C@H](OCc2ccc(Cl)cc2)[C@@H]1O` (some centres unmarked) [Compound 39], for which the “SSTR5 Inhib 0.5 uM %” value was found to be 74% and the “SSTR5 Inhib 10 uM %” value is 95%.

In the case of `COC1C(O)C(COCc2ccc(-c3ccccc3)cc2)OC(OCc2ccc(Cl)cc2)C1NC(=O)CCCN` (centres unmarked) [Compound 40], the “SSTR5 Inhib 0.5 uM %” value stood at 66% and the “SSTR5 Inhib 10 uM %” value amounted to 95%.

On to `COC[C@H]1OC(OCc2ccc(Cl)cc2)[C@H](NC(=O)CCCN)[C@H](OCc2ccc(Cl)cc2)[C@@H]1O` (some centres unmarked) [Compound 41], for which the “SSTR5 Inhib 0.5 uM %” value is 83% and the “SSTR5 Inhib 10 uM %” value came to 94%.

As for `COC[C@H]1OC(OCCc2ccccc2)[C@H](NC(=O)CCCN)[C@@H](OCc2ccc(Cl)cc2)[C@@H]1O` (some centres unmarked) [Compound 42], the “SSTR5 Inhib 0.5 uM %” value was 77% and the “SSTR5 Inhib 10 uM %” value is listed as 94%.

In the case of `COC[C@H]1OC(OCc2ccc3ccccc3c2)[C@H](NC(=O)CCCN)[C@H](OCc2ccc(-c3ccccc3)cc2)[C@@H]1O` (some centres unmarked) [Compound 43], the “SSTR5 Inhib 0.5 uM %” value was determined as 68% and the “SSTR5 Inhib 10 uM %” value was 94%.

As to `COC[C@H]1OC(OCCc2ccccc2)[C@H](NC(=O)CCCN)[C@@H](OCc2ccc3ccccc3c2)[C@@H]1O` (some centres unmarked) [Compound 44], the “SSTR5 Inhib 0.5 uM %” value amounted to 78% and the “SSTR5 Inhib 10 uM %” value is given as 94%.

`CSC1O[C@H](COCc2ccccc2)[C@@H](O)[C@@H](OCc2ccc(Cl)cc2)[C@H]1NC(=O)CNC(=N)N` (some centres unmarked) [Compound 45]: the “SSTR5 Inhib 0.5 uM %” value is reported as 71% and the “SSTR5 Inhib 10 uM %” value was 93%.

With `COC[C@H]1OC(OCc2ccccc2)[C@H](NC(=O)CCCN)[C@H](OCc2ccc(-c3ccccc3)cc2)[C@@H]1O` (some centres unmarked) [Compound 46], the “SSTR5 Inhib 0.5 uM %” value turned out to be 71% and the “SSTR5 Inhib 10 uM %” value was 93%.

With `COC[C@H]1OC(OCc2ccc3ccccc3c2)[C@H](NC(=O)CCCN)[C@@H](OCc2ccc(Cl)cc2)[C@@H]1O` (some centres unmarked) [Compound 47], the “SSTR5 Inhib 0.5 uM %” value is recorded as 68% and the “SSTR5 Inhib 10 uM %” value was determined as 93%.
